The results in this text go back to ChEMBL document CHEMBL6078723, “Novel steroidal β-carboline derivatives as promising antibacterial candidates against methicillin-resistant Staphylococcus aureus” (Eur J Med Chem, 2025).

Calls of active or inactive are those of the source. The calls are words filed in the database; no cut-off is given here.

In assay [1] the test system is Staphylococcus aureus. The assay can be described thus: Antibacterial activity against methicillin-resistant Staphylococcus aureus ATCC 43300. Type of assay: functional.
The test system of assay [2] is Staphylococcus aureus. The assay can be described thus: Bactericidal activity against methicillin-resistant Staphylococcus aureus ATCC 43300 by CLSI based method. Type of assay: functional.
In assay [3] the test system is Staphylococcus aureus. The assay can be described thus: Bactericidal activity against Staphylococcus aureus CGMCC1.8721 by CLSI based method. Type of assay: functional.
Assay [4] concerns Staphylococcus aureus. Put plainly: Bactericidal activity against methicillin-resistant Staphylococcus aureus CGMCC1.12409 by CLSI based method. Type of assay: functional.
In assay [5] the test system is Staphylococcus aureus. Put plainly: Bactericidal activity against methicillin-resistant Staphylococcus aureus ATCC 33591 by CLSI based method. Type of assay: functional.
For assay [6], the system named is Staphylococcus aureus. Put plainly: Antibacterial activity against Staphylococcus aureus CGMCC1.8721. Type of assay: functional.
The subject of assay [7] is Staphylococcus aureus. The assay can be described thus: Antibacterial activity against methicillin-resistant Staphylococcus aureus CGMCC1.12409. Type of assay: functional.
The test system of assay [8] is Staphylococcus aureus. The assay can be described thus: Antibacterial activity against methicillin-resistant Staphylococcus aureus ATCC 33591. Type of assay: functional.
In assay [9] the test system is Staphylococcus aureus. Put plainly: Antibacterial activity against Staphylococcus aureus CGMCC1.8721 in presence of phosphatidylglycerol. Type of assay: functional, organism-based.
Assay [10] has as its system Staphylococcus aureus. Put plainly: Induction of resistance development in Staphylococcus aureus CGMCC1.8721 assessed as fold increase in MIC at sub-lethal concentration following serial passages for 30 days relative to control. Type of assay: functional. The following applies: time 30 day.
In assay [11] the test system is Staphylococcus aureus. The assay can be described thus: Antibacterial activity against methicillin-resistant Staphylococcus aureus CGMCC1.12409 infected in mouse model assessed as reduction in abscesses size at 5 mg/kg measured for 5 days. Conditions: time 5.0 day. Type of assay: functional, organism-based.
Assay [12] relates to Staphylococcus aureus. Put plainly: Antibacterial activity against methicillin-resistant Staphylococcus aureus CGMCC1.12409 infected in mouse model assessed as reduction in bacterial load at infection site at 5 mg/kg measured for 5 days relative to control. Type of assay: functional. Also noted: scale not given: the % may be the effect or the level left. The following applies: time 5 day.

For assay [13], the system named is Staphylococcus aureus. The assay can be described thus: Antibacterial activity against methicillin-resistant Staphylococcus aureus CGMCC1.12409 infected in mouse model assessed as reduction in neutrophils in skin tissues at 5 mg/kg measured for 5 days by H and E staining based analysis. Type of assay: functional, organism-based. The following applies: time 5.0 day.

The subject of assay [14] is Staphylococcus aureus. The assay can be described thus: Antibacterial activity against methicillin-resistant Staphylococcus aureus CGMCC1.12409 infected in mouse model assessed as reduction in inflammation in skin tissues at 5 mg/kg measured for 5 days by H and E staining based analysis. Type of assay: functional, organism-based. The following applies: time 5.0 day.

Assay [15] concerns Staphylococcus aureus. The assay can be described thus: Antibacterial activity against methicillin-resistant Staphylococcus aureus CGMCC1.12409 infected in mouse model assessed as reduction in bacterial clones at 5 mg/kg measured for 5 days. Type of assay: functional, organism-based. Conditions: time 5.0 day.

In general, MIC refers to the lowest concentration found to suppress growth. By MBC is commonly meant the lowest tested concentration that kills the bacteria rather than only halting them. On to `COc1ccc2[nH]c3c(CC[C@H](C)[C@H]4CC[C@H]5[C@@H]6[C@H](O)C[C@@H]7C[C@H](O)CC[C@]7(C)[C@H]6C[C@H](O)[C@]45C)[n+](Cc4ccccc4C)ccc3c2c1.[Br-]`, for which the MIC turned out to be 1 µg/mL with Staphylococcus aureus [1], 0.5 µg/mL in the assay with Staphylococcus aureus [6], 4 µg/mL with Staphylococcus aureus [7] and 4 µg/mL in the assay with Staphylococcus aureus [8]. For the same compound, the minimal bactericidal concentration (MBC) stood at 4 µg/mL against Staphylococcus aureus [2], 1 µg/mL in the assay with Staphylococcus aureus [3], 8 µg/mL in the assay on Staphylococcus aureus [4] and 8 µg/mL in the assay with Staphylococcus aureus [5].
In the case of `CCC[n+]1ccc2c([nH]c3ccc(OC)cc32)c1CC[C@H](C)[C@H]1CC[C@H]2[C@@H]3[C@H](O)C[C@@H]4C[C@H](O)CC[C@]4(C)[C@H]3CC[C@]12C.[Br-]`, the MIC stood at 2 µg/mL in the assay with Staphylococcus aureus [1], 1 µg/mL against Staphylococcus aureus [6], 2 µg/mL against Staphylococcus aureus [7] and 2 µg/mL against Staphylococcus aureus [8]. Further, the MBC came to 2 µg/mL with Staphylococcus aureus [2], 2 µg/mL with Staphylococcus aureus [3], 4 µg/mL in the assay on Staphylococcus aureus [4] and 4 µg/mL against Staphylococcus aureus [5].
On to `CNC(C)[C@@H]1CC[C@@H](N)[C@@H](O[C@H]2[C@H](O)[C@@H](O[C@H]3OC[C@](C)(O)[C@H](NC)[C@H]3O)[C@H](N)C[C@@H]2N)O1.CN[C@@H]1[C@@H](O)[C@@H](O[C@@H]2[C@@H](O)[C@H](O[C@H]3O[C@H](C(C)N)CC[C@H]3N)[C@@H](N)C[C@H]2N)OC[C@]1(C)O.CN[C@@H]1[C@@H](O)[C@@H](O[C@@H]2[C@@H](O)[C@H](O[C@H]3O[C@H](CN)CC[C@H]3N)[C@@H](N)C[C@H]2N)OC[C@]1(C)O` (stereo partly specified), for which the result in the assay with Staphylococcus aureus [9] was Active.
For `COc1ccc2[nH]c3c(CC[C@H](C)[C@H]4CC[C@H]5[C@@H]6[C@H](O)C[C@@H]7C[C@H](O)CC[C@]7(C)[C@H]6C[C@H](O)[C@]45C)[n+](Cc4cccc(F)c4)ccc3c2c1.[Br-]`, the MIC stood at 1 µg/mL in the assay with Staphylococcus aureus [1], 1 µg/mL against Staphylococcus aureus [6], 2 µg/mL in the assay with Staphylococcus aureus [7] and 2 µg/mL against Staphylococcus aureus [8]. Besides, the MBC against Staphylococcus aureus [2] is 2 µg/mL; against Staphylococcus aureus [3], 2 µg/mL; against Staphylococcus aureus [4], 4 µg/mL; with Staphylococcus aureus [5] it was 2 µg/mL.
Take `CO[C@H]1/C=C/O[C@@]2(C)Oc3c(C)c(O)c4c(O)c(c(/C=N/N5CCN(C)CC5)c(O)c4c3C2=O)NC(=O)/C(C)=C\C=C\[C@H](C)[C@H](O)[C@@H](C)[C@@H](O)[C@@H](C)[C@H](OC(C)=O)[C@@H]1C`: the result in the assay on Staphylococcus aureus [9] was Active.
Consider `CCCC[n+]1ccc2c([nH]c3ccc(OC)cc32)c1CC[C@H](C)[C@H]1CC[C@H]2[C@@H]3[C@H](O)C[C@@H]4C[C@H](O)CC[C@]4(C)[C@H]3CC[C@]12C.[Br-]`, for which the MIC in the assay on Staphylococcus aureus [1] turned out to be 4 µg/mL; against Staphylococcus aureus [6], 1 µg/mL; in the assay on Staphylococcus aureus [7], 4 µg/mL; with Staphylococcus aureus [8] it was 4 µg/mL. In addition, the MBC is 8 µg/mL against Staphylococcus aureus [2], 2 µg/mL in the assay on Staphylococcus aureus [3], 8 µg/mL in the assay on Staphylococcus aureus [4] and 16 µg/mL in the assay on Staphylococcus aureus [5].
In the case of `CCCCCCCCCC(=O)N[C@@H](Cc1c[nH]c2ccccc12)C(=O)N[C@@H](CC(N)=O)C(=O)N[C@@H](CC(=O)O)C(=O)N[C@@H]1C(=O)NCC(=O)N[C@@H](CCCN)C(=O)N[C@@H](CC(=O)O)C(=O)N[C@H](C)C(=O)N[C@@H](CC(=O)O)C(=O)NCC(=O)N[C@H](CO)C(=O)N[C@@H]([C@@H](C)CC(=O)O)C(=O)N[C@@H](CC(=O)c2ccccc2N)C(=O)O[C@@H]1C`, in the assay on Staphylococcus aureus [9], the result was inactive.
In the case of `CC[n+]1ccc2c([nH]c3ccc(OC)cc32)c1CC[C@H](C)[C@H]1CC[C@H]2[C@@H]3[C@H](O)C[C@@H]4C[C@H](O)CC[C@]4(C)[C@H]3CC[C@]12C.[Br-]`, the minimum inhibitory concentration (MIC) was determined as 2 µg/mL in the assay with Staphylococcus aureus [1], 1 µg/mL in the assay on Staphylococcus aureus [6], 2 µg/mL against Staphylococcus aureus [7] and 2 µg/mL against Staphylococcus aureus [8]. Moreover, the MBC with Staphylococcus aureus [2] came to 2 µg/mL; with Staphylococcus aureus [3], 2 µg/mL; against Staphylococcus aureus [4], 4 µg/mL; against Staphylococcus aureus [5], 4 µg/mL.
With `COc1ccc2[nH]c3c(CC[C@H](C)[C@H]4CC[C@H]5[C@@H]6[C@H](O)C[C@@H]7C[C@H](O)CC[C@]7(C)[C@H]6C[C@H](O)[C@]45C)[n+](Cc4ccc(Br)cc4)ccc3c2c1.[Br-]`, the MIC stood at 2 µg/mL against Staphylococcus aureus [1], 1 µg/mL in the assay on Staphylococcus aureus [6], 2 µg/mL against Staphylococcus aureus [7] and 2 µg/mL in the assay with Staphylococcus aureus [8]. For the same compound, the MBC in the assay with Staphylococcus aureus [2] worked out at 2 µg/mL; in the assay with Staphylococcus aureus [3] it was 2 µg/mL; against Staphylococcus aureus [4], 4 µg/mL; with Staphylococcus aureus [5], 4 µg/mL.
As for `CCn1cc(C(=O)O)c(=O)c2cc(F)c(N3CCNCC3)cc21` [NORFLOXACIN], the “fold change (FC)” value in the assay with Staphylococcus aureus [10] is listed as 64. In addition, the result in the assay on Staphylococcus aureus [9] was Active.
For the compound `COc1ccc2[nH]c3c(CC[C@H](C)[C@H]4CC[C@H]5[C@@H]6[C@H](O)C[C@@H]7C[C@H](O)CC[C@]7(C)[C@H]6C[C@H](O)[C@]45C)[n+](Cc4ccc(F)cc4)ccc3c2c1.[Br-]`, the MIC came to 1 µg/mL against Staphylococcus aureus [1], 0.5 µg/mL with Staphylococcus aureus [6], 1 µg/mL against Staphylococcus aureus [7] and 2 µg/mL with Staphylococcus aureus [8]. Moreover, the MBC was 2 µg/mL in the assay with Staphylococcus aureus [2], 1 µg/mL with Staphylococcus aureus [3], 2 µg/mL in the assay on Staphylococcus aureus [4] and 2 µg/mL with Staphylococcus aureus [5].
Take `COc1ccc2[nH]c3c(CC[C@H](C)[C@H]4CC[C@H]5[C@@H]6[C@H](O)C[C@@H]7C[C@H](O)CC[C@]7(C)[C@H]6C[C@H](O)[C@]45C)[n+](Cc4ccc(C)cc4)ccc3c2c1.[Br-]`: the MIC with Staphylococcus aureus [1] was 1 µg/mL; in the assay with Staphylococcus aureus [6], 0.5 µg/mL; against Staphylococcus aureus [7], 4 µg/mL; against Staphylococcus aureus [8] it was 4 µg/mL. Further, the MBC in the assay on Staphylococcus aureus [2] stood at 2 µg/mL; in the assay on Staphylococcus aureus [3] it was 1 µg/mL; in the assay on Staphylococcus aureus [4] it was 8 µg/mL; against Staphylococcus aureus [5], 8 µg/mL.
With `COc1ccc2[nH]c3c(CC[C@H](C)[C@H]4CC[C@H]5[C@@H]6[C@H](O)C[C@@H]7C[C@H](O)CC[C@]7(C)[C@H]6C[C@H](O)[C@]45C)[n+](Cc4ccccc4F)ccc3c2c1.[Br-]`, the MIC against Staphylococcus aureus [1] stood at 1 µg/mL; in the assay with Staphylococcus aureus [6], 1 µg/mL; in the assay with Staphylococcus aureus [7], 2 µg/mL; with Staphylococcus aureus [8], 4 µg/mL. The MBC is 2 µg/mL with Staphylococcus aureus [2], 2 µg/mL against Staphylococcus aureus [3], 4 µg/mL against Staphylococcus aureus [4] and 4 µg/mL in the assay on Staphylococcus aureus [5].
In the case of `COc1cccc(C[n+]2ccc3c([nH]c4ccc(OC)cc43)c2CC[C@H](C)[C@H]2CC[C@H]3[C@@H]4[C@H](O)C[C@@H]5C[C@H](O)CC[C@]5(C)[C@H]4C[C@H](O)[C@]23C)c1.[Br-]`, the MIC was found to be 1 µg/mL with Staphylococcus aureus [1], 1 µg/mL in the assay on Staphylococcus aureus [6], 4 µg/mL against Staphylococcus aureus [7] and 4 µg/mL with Staphylococcus aureus [8]. For the same compound, the MBC against Staphylococcus aureus [2] amounted to 4 µg/mL; with Staphylococcus aureus [3], 2 µg/mL; against Staphylococcus aureus [4], 8 µg/mL; in the assay on Staphylococcus aureus [5], 8 µg/mL.
On to `CN[C@H](CC(C)C)C(=O)N[C@H]1C(=O)N[C@@H](CC(N)=O)C(=O)N[C@H]2C(=O)N[C@H]3C(=O)N[C@H](C(=O)N[C@H](C(=O)O)c4cc(O)cc(O)c4-c4cc3ccc4O)[C@H](O)c3ccc(c(Cl)c3)Oc3cc2cc(c3O[C@@H]2O[C@H](CO)[C@@H](O)[C@H](O)[C@H]2O[C@H]2C[C@](C)(N)[C@H](O)[C@H](C)O2)Oc2ccc(cc2Cl)[C@H]1O` [VANCOMYCIN], for which the outcome in the assay on Staphylococcus aureus [11], in the assay with Staphylococcus aureus [9], in the assay with Staphylococcus aureus [13], in the assay on Staphylococcus aureus [14] and with Staphylococcus aureus [15] was Active. In the assay with Staphylococcus aureus [12], the Activity was 92.98%.
